Where no end group is shown, it is not given here. The star is where a group is joined. EDANS = O=S(=O)(O)c1cccc2c(NCCN*)cccc12

Data on 27 substances can be found in patent US20240417437A1, “Linker Polypeptides” (Trutino Biosciences Inc., priority 2021, published 2024).

For test [1], the target named is Collagen type I (Homo sapiens, UniProt P02452+P08123). As to conditions: binds to Collagen type I; Note 1 of Table 2; cited from earlier work.
For test [2] the following is noted: pH-sensitive targeting sequences; cited from earlier work.
In test [3] the target is fibronectin (Homo sapiens, UniProt P02751). The following applies: derived from thrombospondin, cited from earlier work; for Note 1: affinity (binds to Fibronectin): pH-sensitive targeting sequences.
Sequence of fibronectin (Homo sapiens, UniProt P02751) (P02751 32-2477, species assumed): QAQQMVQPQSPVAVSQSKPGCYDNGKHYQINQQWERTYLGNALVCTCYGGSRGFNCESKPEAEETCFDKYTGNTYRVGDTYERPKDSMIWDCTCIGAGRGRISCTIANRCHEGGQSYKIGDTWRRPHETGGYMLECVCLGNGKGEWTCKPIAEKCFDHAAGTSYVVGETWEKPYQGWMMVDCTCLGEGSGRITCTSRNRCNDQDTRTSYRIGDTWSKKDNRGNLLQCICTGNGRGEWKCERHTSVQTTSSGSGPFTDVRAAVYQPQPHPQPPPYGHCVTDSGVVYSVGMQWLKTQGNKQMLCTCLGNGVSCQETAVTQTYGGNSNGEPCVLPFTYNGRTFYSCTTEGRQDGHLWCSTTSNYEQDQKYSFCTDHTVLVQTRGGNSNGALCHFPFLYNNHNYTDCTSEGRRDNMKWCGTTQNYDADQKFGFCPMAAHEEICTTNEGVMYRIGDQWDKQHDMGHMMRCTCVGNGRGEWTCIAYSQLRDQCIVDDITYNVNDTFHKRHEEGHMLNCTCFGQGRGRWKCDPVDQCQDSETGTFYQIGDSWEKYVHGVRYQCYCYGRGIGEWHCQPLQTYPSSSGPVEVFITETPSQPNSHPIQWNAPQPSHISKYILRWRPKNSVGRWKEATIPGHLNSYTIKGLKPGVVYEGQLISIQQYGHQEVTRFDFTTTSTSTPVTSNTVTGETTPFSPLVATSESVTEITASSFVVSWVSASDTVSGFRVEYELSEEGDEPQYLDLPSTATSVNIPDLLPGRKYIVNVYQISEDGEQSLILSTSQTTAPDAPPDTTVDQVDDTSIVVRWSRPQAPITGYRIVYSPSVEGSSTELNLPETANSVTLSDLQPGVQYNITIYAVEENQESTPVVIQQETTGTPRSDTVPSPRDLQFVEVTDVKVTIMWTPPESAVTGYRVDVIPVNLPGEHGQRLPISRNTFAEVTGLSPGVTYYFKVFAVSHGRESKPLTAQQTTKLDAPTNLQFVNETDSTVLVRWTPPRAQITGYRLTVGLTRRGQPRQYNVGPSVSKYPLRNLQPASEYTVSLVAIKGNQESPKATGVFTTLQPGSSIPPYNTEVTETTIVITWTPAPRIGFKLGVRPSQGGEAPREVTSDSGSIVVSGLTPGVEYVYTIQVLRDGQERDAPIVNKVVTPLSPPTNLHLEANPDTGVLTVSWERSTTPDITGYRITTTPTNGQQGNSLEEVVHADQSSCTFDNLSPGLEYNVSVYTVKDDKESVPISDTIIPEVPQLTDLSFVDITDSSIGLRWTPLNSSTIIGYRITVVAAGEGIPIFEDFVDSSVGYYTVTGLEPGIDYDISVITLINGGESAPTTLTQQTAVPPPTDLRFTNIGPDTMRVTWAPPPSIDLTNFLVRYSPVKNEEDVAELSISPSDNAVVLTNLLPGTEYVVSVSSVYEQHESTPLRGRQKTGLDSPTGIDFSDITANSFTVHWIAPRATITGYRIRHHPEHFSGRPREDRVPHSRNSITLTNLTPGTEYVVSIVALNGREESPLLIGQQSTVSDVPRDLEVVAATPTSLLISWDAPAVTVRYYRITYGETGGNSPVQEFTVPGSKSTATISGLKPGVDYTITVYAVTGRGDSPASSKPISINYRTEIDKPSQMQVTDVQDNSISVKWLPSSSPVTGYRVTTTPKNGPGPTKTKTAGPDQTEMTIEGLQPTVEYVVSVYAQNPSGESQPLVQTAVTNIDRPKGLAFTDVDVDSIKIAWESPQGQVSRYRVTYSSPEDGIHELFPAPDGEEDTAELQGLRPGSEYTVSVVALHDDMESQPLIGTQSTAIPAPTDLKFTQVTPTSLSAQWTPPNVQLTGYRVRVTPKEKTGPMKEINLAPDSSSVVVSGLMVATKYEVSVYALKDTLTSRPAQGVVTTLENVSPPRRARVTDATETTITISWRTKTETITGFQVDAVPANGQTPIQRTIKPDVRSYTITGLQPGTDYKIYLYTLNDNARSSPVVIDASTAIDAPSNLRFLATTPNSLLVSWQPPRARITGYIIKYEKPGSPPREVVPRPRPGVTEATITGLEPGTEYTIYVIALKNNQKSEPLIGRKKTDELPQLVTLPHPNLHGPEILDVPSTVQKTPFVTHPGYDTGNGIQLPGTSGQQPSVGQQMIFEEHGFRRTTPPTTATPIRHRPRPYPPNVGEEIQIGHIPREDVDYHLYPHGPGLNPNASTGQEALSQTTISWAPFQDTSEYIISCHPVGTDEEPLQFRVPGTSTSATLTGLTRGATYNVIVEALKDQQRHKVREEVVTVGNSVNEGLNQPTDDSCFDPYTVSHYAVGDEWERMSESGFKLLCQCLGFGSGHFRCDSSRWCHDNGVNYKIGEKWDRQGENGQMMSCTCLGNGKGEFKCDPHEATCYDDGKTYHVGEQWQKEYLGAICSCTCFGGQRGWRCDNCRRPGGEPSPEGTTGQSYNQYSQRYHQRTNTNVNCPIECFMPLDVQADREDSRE
Test [4] deals with T1, collagen IV (Homo sapiens, UniProt P02462+P08572).
T1 construct: purchased Prospec
The test can be described thus: EDANS linker peptide binding to collagen IV-coated magnetic beads. The following applies: peptides 20 μM, 2 hours. The method, then: (§1) A series of peptides comprising an MMP cleavable site with or without the addition of a targeting sequence were synthesized and conjugated to the fluorophore EDANS (5-((2-Aminoethyl)amino)naphthalene-1-sulfonic acid) (custom synthesis, ThermoFisher). […] These peptides were then tested for their ability to bind ECM proteins such as heparin, fibronectin and collagen which are found in abundance in tumor stroma.
(§2) For fibronectin and collagen binding peptide assays, streptavidin coupled magnetic beads (Mag Sepharose, Cytiva and Dynabeads, ThermoFisher, respectively) were first incubated with biotin-labelled fibronectin (Cytoskeleton) or biotin-labelled collagen IV (Prospec) for 1 hour with gentle shaking. Following multiple washes, the ECM-coated beads were then incubated with Edans Peptides (20 μM) for 2 hours at room temperature with shaking in neutral or acidic binding buffer. Beads were then washed and resuspended in 100 μL of binding buffer in a black 96-well plate. Peptide binding was quantified by measuring the fluorescence of samples using excitation/emission spectra of EDANS (Ex 340/Em 490).

In test [5] the test system is Heparan sulfate proteoglycans. As to conditions: DTx protein derived sequences; cited from earlier work.
Test [6] relates to fibronectin. The test can be described thus: EDANS linker peptide binding to fibronectin-coated magnetic beads. The following applies: peptides 20 μM. The method, then: as §1, §2
For test [7], the system named is MC38 colorectal cancer cells. Put plainly: MC38 colorectal cancer tumor growth inhibition study. The following applies: low dose (1 mg/kg IP BIW). It counts as in vivo, C57BL/6 mice. The method, then: C57BL/6 mice were subcutaneously inoculated with MC38 colorectal cancer cells. When the average tumor volume reached 70-90 mm^3, animals were randomized into 10 groups based on tumor volumes (n 7 or 6 mice per treatment group).
Tumor volumes were measured twice a week for the duration of the study.

Test [8] is classed as binding. As to conditions: compared with IL-15Rα-IL-15 fusion protein. The method, then: 96-well plates were coated with 10 μg/mL of Heparin-BSA conjugate (provided by Dr. Mueller, Boerhinger Ingelheim) or control BSA for 18-22 hours at room temperature on shaker (350 rpm). After washing, wells are blocked with 2% milk powder in PBS-0.05% Tween 20 or PBS-0.05% Tween 20/1% BSA for 90 minutes. The fusion proteins were then titrated in either 2% milk powder in PBS-0.05% Tween 20 or 1% BSA/PBS-0.05% Tween 20, pH 7.5 and/or pH 6, and added for 2 hours at room temperature with shaking. After washing, an anti-mouse IL-2 biotin-labelled detection antibody (JES6-5H4, ThermoFisher), anti-6×-His Tag HRP conjugate antibody (Invitrogen, 1 mg/mL, cat #MA1-21315-HRP), or anti-human IgG HRP conjugate antibody (SouthernBiotech) was added, and binding was detected using Ultra Streptavidin HRP (ThermoFisher). The plate was developed by adding the chromogenic tetramethylbenzidine substrate (Ultra TMB, ThermoFisher). The reaction was stopped by addition of 0.5 M H2SO4, and the absorbance was read at 450-650 nm. […] Moreover, when the same pH-dependent heparin binding motif was inserted into different locations of IL-2 fusion proteins, all resulting proteins bound heparin at pH 6 with similar high affinities (FIGS. 4F and 4G). Likewise, similar binding affinities were observed when another heparin targeting sequence was engineered into different sites of IL-2 fusion proteins (FIGS. 4H-4I). […]

Sequence of Collagen type I (P02452 162-1218 limits assumed): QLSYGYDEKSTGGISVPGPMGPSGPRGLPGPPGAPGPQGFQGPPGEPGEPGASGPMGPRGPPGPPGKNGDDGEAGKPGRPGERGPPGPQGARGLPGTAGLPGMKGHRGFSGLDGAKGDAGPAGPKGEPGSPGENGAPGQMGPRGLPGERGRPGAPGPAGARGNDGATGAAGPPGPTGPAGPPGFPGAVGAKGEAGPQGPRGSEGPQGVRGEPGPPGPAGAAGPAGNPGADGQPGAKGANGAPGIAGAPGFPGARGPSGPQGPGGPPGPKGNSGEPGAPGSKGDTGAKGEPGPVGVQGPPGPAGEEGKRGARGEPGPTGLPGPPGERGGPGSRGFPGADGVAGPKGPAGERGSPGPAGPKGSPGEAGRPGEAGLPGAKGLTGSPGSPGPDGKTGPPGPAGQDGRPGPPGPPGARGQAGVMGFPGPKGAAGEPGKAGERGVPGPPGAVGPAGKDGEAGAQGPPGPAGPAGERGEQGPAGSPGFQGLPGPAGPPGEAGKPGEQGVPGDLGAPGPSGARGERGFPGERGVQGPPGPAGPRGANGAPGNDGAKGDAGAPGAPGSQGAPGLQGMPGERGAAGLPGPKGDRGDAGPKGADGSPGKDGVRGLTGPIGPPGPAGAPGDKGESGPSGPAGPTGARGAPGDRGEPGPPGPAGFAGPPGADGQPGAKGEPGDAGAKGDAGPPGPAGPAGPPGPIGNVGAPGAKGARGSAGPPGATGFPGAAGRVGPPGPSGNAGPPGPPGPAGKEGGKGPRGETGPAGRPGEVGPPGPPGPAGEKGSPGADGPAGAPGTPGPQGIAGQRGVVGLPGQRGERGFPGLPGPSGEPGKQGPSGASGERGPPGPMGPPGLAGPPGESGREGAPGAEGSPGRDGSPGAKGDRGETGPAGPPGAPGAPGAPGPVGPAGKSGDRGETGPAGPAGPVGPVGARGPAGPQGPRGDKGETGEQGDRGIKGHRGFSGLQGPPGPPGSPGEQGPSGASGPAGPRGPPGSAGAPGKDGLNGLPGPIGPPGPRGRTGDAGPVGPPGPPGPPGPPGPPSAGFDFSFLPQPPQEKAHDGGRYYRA
Sequence of Collagen type I (P08123 80-1119 limits assumed): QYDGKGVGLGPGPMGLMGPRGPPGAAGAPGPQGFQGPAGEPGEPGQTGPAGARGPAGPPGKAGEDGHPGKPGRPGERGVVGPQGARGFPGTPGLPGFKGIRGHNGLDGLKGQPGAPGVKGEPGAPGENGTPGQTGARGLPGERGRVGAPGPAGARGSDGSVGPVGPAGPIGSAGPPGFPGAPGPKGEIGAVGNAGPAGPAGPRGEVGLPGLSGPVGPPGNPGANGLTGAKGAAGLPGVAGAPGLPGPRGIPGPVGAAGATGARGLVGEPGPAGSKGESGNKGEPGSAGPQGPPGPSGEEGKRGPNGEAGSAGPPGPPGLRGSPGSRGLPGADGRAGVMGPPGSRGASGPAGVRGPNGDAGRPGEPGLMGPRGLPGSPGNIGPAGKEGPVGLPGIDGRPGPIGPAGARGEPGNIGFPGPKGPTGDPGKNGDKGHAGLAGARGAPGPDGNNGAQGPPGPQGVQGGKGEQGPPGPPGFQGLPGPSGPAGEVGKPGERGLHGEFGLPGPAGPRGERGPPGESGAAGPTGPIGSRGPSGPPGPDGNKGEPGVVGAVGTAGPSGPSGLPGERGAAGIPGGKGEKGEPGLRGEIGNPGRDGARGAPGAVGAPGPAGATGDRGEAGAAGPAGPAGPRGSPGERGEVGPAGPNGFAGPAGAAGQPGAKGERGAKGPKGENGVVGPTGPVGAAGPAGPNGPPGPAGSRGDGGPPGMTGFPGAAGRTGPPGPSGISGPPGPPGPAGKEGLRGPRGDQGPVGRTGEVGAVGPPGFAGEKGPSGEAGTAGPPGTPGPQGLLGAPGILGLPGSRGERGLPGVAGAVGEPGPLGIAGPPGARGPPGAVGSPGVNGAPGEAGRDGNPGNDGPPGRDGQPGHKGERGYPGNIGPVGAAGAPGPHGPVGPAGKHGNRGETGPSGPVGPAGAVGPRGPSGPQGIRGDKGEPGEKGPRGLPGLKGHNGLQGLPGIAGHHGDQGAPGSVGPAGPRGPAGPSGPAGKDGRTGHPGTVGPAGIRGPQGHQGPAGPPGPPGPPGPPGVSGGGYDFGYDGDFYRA

What is called Kd is the concentration at which binding is half-saturated. With “197 (HVWMQAPGGGK; Synthetic: Collagen type I, H-v-F/W-Q/ M-Q-P/A-P/K motif) [Construct 197]”, the Kd in test [1] was 61 µM.

Take “647 (HKGQHR; Synthetic: Heparin; binds to heparin at low pH (lower affinity)) [Construct 647]”: in test [2], the “Note 1: binds to heparin at low pH (affinity)” value (shortened to “Note 1: binds to heparin”) was “binds to heparin at low pH (lower affinity)”.

As for “656 (GGWSHWSPWSS; Synthetic: Fibronectin; derived from thrombospondin (medium affinity)) [Construct 656]”, the “Note 1: affinity (binds to Fibronectin)” value in test [3] is reported as “derived from thrombospondin (medium affinity)”.

On to “643 (TTEPSEEHNHHK; Synthetic: Heparin; binds to heparin at low pH (low affinity)) [Construct 643]”, for which the “Note 1: binds to heparin” value in test [2] is “binds to heparin at low pH (low affinity)”.

For “649 (GGKVEHRVKKRPPTWRHNVRAKYT; Synthetic: Heparin; binds to heparin at low pH) [Construct 649]”, in test [2], the “Note 1: binds to heparin” value was “binds to heparin at low pH”.

Turning to “195 (CPKESCNLFVLKD; Synthetic: Collagen type I) [Construct 195]”, the dissociation constant (Kd) in test [1] was 0.681 µM.

Turning to “peptide 14: EDANS-conjugated KLWVLPKGPLGVRG-* (SEQ ID NO: 672); Collagen IV (KLWVLPKGPLGVRG-{EDANS})”, the “peptide binding to collagen IV (EDANS fluorescence)” value in test [4] is given as “strongly bound”.

Regarding “194 (TKKTLRT; Synthetic: Collagen type I) [Construct 194]”, the dissociation constant Kd in test [1] is ≤ 100 µM.

Turning to “640 (DVIRDKTKTKIESLK; Synthetic: Heparan sulfate proteoglycans ; binds to HSGP with low affinity (DTx protein)) [Construct 640]”, the “Note 1: binds to HSGP, affinity” value in test [5] was “binds to HSGP with low affinity (DTx protein)”.

Turning to “645 (TTEPSEEHNHHK; Synthetic: Heparin; binds to heparin at low pH (lower affinity)) [Construct 645]”, the “Note 1: binds to heparin” value in test [2] is “binds to heparin at low pH (lower affinity)”.

As to “190 (RRANAALKAGELYKCILYGC; Synthetic: Collagen type I) [Construct 190]”, the dissociation constant Kd in test [1] is 0.01 µM.

As for “peptide 13: EDANS-conjugated GGGWSHWGPLGVRG-* (SEQ ID NO: 671); pH dependent fibronectin (GGGWSHWGPLGVRG-{EDANS})”, in test [6], the “peptide binding to fibronectin at pH 6 vs. pH 7.5” value was “enhanced binding at pH 6”. Moreover, in test [6] (2 hours), the “peptide binding to fibronectin (EDANS fluorescence)” value is reported as “able to bind fibronectin”.

Take “639 (NGRKIRMRCRAIDGD; Synthetic: Heparan sulfate proteoglycans ; binds to HSGP with high affinity (DTx protein)) [Construct 639]”: the “Note 1: binds to HSGP, affinity” value in test [5] is listed as “binds to HSGP with high affinity (DTx protein)”.

As to “646 (TTEPSEEHNHHKHHDK; Synthetic: Heparin; binds to heparin at low pH (lower affinity)) [Construct 646]”, in test [2], the “Note 1: binds to heparin” value is recorded as “binds to heparin at low pH (lower affinity)”.

Turning to “Construct NNN: huIL2(C125S)-SGGKLWVLPK-MMPcs1-2x(G4S)-huIL2Ra(1-219;M25I)-GSGGGG-huIgG1(LALA); col IV”, the “efficacy (TGI) in low dose treatment groups” value in test [7] was “superior efficacy over parental non-targeting constructs”.

For the substance “653 (GGWSHW; Synthetic: Fibronectin; derived from thrombospondin (highest affinity)) [Construct 653]”, in test [3], the “Note 2: pH dependence of binding to Fibronectin” value is listed as “binds better at lower pH” and the “Note 1: affinity (binds to Fibronectin)” value is reported as “(highest affinity)”.

Regarding “642 (KHAHLKKQVSDHIAVY; Synthetic: Heparin; binds to heparin at low pH (high affinity)) [Construct 642]”, in test [2], the “Note 1: binds to heparin” value was “binds to heparin at low pH (high affinity)”.

For the substance “191 (MIVIELGTNPLKSSGIENGAFQGMKK; Synthetic: Collagen type I) [Construct 191]”, in test [1], the Kd was 0.394 µM.

For “192 (LRELHLNNN; Synthetic: Collagen type I) [Construct 192]”, in test [1], the dissociation constant (Kd) is 0.17 µM.

With “644 (KHAHL; Synthetic: Heparin; binds to heparin at low pH (lower affinity)) [Construct 644]”, the “Note 1: binds to heparin” value in test [2] is reported as “binds to heparin at low pH (lower affinity)”.

For “650 (KKRPPTWRHNV; Synthetic: Heparin; binds to heparin at low pH) [Construct 650]”, the “Note 1: binds to heparin” value in test [2] is given as “binds to heparin at low pH”.

For “648 (KVEHRVKKRPPTWRHNVRAKYT; Synthetic: Heparin; binds to heparin at low pH) [Construct 648]”, the “Note 1: binds to heparin” value in test [2] is recorded as “binds to heparin at low pH”.

Regarding “peptide 15: EDANS-conjugated GGGSGLHERHLNNN-* (SEQ ID NO: 673); Collagen I (GGGSGLHERHLNNN-{EDANS})”, the “peptide binding to collagen IV (EDANS fluorescence)” value in test [4] is given as “bound to a lesser extent”.

With “655 (KRFKQDGGWSHWSP; Synthetic: Fibronectin; derived from thrombospondin (medium affinity)) [Construct 655]”, the “Note 1: affinity (binds to Fibronectin)” value in test [3] is listed as “derived from thrombospondin (medium affinity)”.

Turning to “Construct WWW: huIL15Ra(1-77)-linker-huIL15-(SG3)-GPLGVRG-gsVRIQRKKEKMKET-3x(G4S)-IL2Rb(1-214)-6xHis”, the “heparin binding of IL-15 linker polypeptide fusion proteins” value in test [8] is listed as “recovered”.

Take “189 (RRANAALKAGELYKSILYGC; Synthetic: Collagen type I) [Construct 189]”: in test [1], the Kd was 0.86 µM.

As to “Construct VVV: huIL15Ra(1-77)-linker-huIL15-(SG3)-GPLGVRG-4x(G4S)-IL2Rb(1-214)-6xHis; no TME”, the “heparin binding of IL-15 linker polypeptide fusion proteins” value in test [8] is “lost”.
